Test results reported in ChEMBL document CHEMBL4651402, “Screening of ~5500 FDA-approved drugs and clinical candidates for anti-SARS-CoV-2 activity” (2021).
pIC50: −log10 of the molar value.

Tested on: SARS-CoV-2
Test: microbe, parasite or virus in culture
Settings: Severe acute respiratory syndrome coronavirus 2, Vero C1008, 48 h; for IC50: read-out: pIC50 (converted)

Compound | pIC50 | IC50 [µM]
C=C(C)C1Cc2c(ccc3c2OC2COc4cc(OC)c(OC)cc4C2C3=O)O1 (stereo not given) | < 4.70 | > 20
CC(=O)O[C@H]1CC[C@@]2(C)C(=CC(=O)[C@@H]3[C@@H]2CC[C@]2(C)C(=O)CC[C@@H]32)C1 | < 4.70 | > 20
NC(=O)c1[nH]cnc1O | < 4.70 | > 20
CC(C)c1ccc(C(=O)NCCOc2ccc(C(=O)O)cc2)cc1 | < 4.70 | > 20
CC(C=NNC(=N)N)=NNC(=N)N | < 4.70 | > 20
CC(C)CCCC(C)C1CCC2C3CC(O)[C@@]4(O)CC(O)CCC4(C)C3CCC12C (stereo not given in full) | < 4.70 | > 20
CC(C)OC(=O)[C@H](C)N[P@@](=S)(OC[C@H]1O[C@@H](n2ccc(=O)[nH]c2=O)[C@](C)(O)[C@@H]1O)Oc1ccccc1 | < 4.70 | > 20
CC(=O)OC1CCC2(C)C(=CCC3C2CCC2(C)C(C(C)CCCC(C)C)CCC32)C1 (stereo not given) | < 4.70 | > 20
CC1(C)SC2C(NC(=O)C(NC(=O)N3CCNC3=O)c3ccccc3)C(=O)N2C1C(=O)O (stereo not given) | < 4.70 | > 20
CC[C@H]1/C=C\C=C/C[C@@H](C)[C@H](O)[C@@](C)(O)C(=O)[C@@H](C)[C@H](O)[C@@H](C)C(=O)[C@@H](C)[C@H](O)[C@@H](C)/C=C\C(=O)O[C@@H]2[C@@H](C)[C@H](CC1)O[C@]1(CC[C@H](C)[C@H](C[C@@H](C)O)O1)[C@H]2C | < 4.70 | > 20
CC12C=CC(=O)C=C1C(F)CC1C2C(O)CC2(C)C1CCC2(O)C(=O)CO (stereo not given) | < 4.70 | > 20
CC(C)N(CCC(C(N)=O)(c1ccccc1)c1ccccc1)C(C)C | < 4.70 | > 20
C[C@@H]1CCC[C@@H](C)N1CCCC(O)(c1ccccc1)c1ccccn1 (stereo not given in full) | < 4.70 | > 20
C[C@H](Cc1ccccc1)N(C)Cc1ccco1 | < 4.70 | > 20
[2H]C([2H])(OC(=O)C(C)C)[C@@]1(CCl)O[C@@H](n2ccc(N)nc2=O)[C@H](F)[C@@H]1OC(=O)C(C)C | < 4.70 | > 20
CC=C(C)C(=O)O[C@@H]1c2c(ccc3ccc(=O)oc23)OC(C)(C)[C@@H]1OC(C)=O | < 4.70 | > 20
CC(=O)C1CCC2C3CCC4CC(O)CCC4(C)C3CC(O)C12C (stereo not given) | < 4.70 | > 20
O=c1cc2c(nn1-c1ccc(Cl)cc1)-c1ccccc1[S+]([O-])CC2 (stereo not given) | < 4.70 | > 20
CC1O[C@@H](OC2CC[C@@]3(C)C(CCC4C3CC(O)[C@]3(C)[C@@H](C5=CC(=O)OC5)CCC43O)C2)CC(O)[C@@H]1O[C@H]1CC(O)[C@H](O[C@H]2CC(O)[C@H](O[C@@H]3OC(CO)[C@@H](O)C(O)C3O)C(C)O2)C(C)O1 (stereo not given in full) | < 4.70 | > 20
CC12CCC3C(CC[C@H]4CC(=O)CCC34C)C1CCC2C(=O)CO (stereo not given in full) | < 4.70 | > 20

Compound | pIC50 | IC50 [µM]
Cc1cc(CC(=O)O)n(C)c1[14C](=O)c1ccc(Cl)cc1 | < 4.70 | > 20
CC(=O)OC1CCC2(C)C3CC(=O)C4(C)C(CC5O[C@]6(CCC(C)CO6)C(C)C54)C3CC[C@H]2C1 (stereo not given in full) | < 4.70 | > 20
CC(=O)OC1CCC2(C)C3CCC4(C)C(CC5OC6(CCC(C)CO6)C(C)C54)C3CC[C@H]2C1 (stereo not given in full) | < 4.70 | > 20
C=C1CC23CCC4C(C)(C(=O)O)CCCC4(C)C2CCC1(OC1OC(CO)C(O)C(O)C1OC1OC(CO)C(O)C(O)C1O)C3 (stereo not given) | < 4.70 | > 20
O=C(O)CC/C=C/CCC1C(OCc2ccc(-c3ccccc3)cc2)CC(O)C1N1CCCCC1 (stereo not given) | < 4.70 | > 20
C[C@@]12CCC3[C@@](CC[C@@H]4[C@](C)(C(=O)O)CCC[C@@]34C)(CC1=O)C2 (stereo not given in full) | < 4.70 | > 20
CCN(C/C=C\c1ccc(C2CCCCC2)c(Cl)c1)C1CCCCC1 | < 4.70 | > 20
CC(=O)OC1CCC2(C)C(=CCC3C2CCC2(C)C(OC(=O)c4ccccc4)CCC32)C1 (stereo not given) | < 4.70 | > 20
COc1ccccc1OC(=O)C(C)c1ccc(CC(C)C)cc1 (stereo not given) | < 4.70 | > 20
NC(=O)CCC/N=C(/c1ccc(Cl)cc1)c1cc(F)ccc1O | < 4.70 | > 20
O=C(O)[C@H]1C[C@H]([C@H]2CCCCN2)CN2CCCC[C@H]12 | < 4.70 | > 20
CCC(C)C(NC(=O)C(CCC(N)=O)NC(=O)C1CCCN1C(=O)C(CCCNC(=N)N)NC(=O)C1CCCN1C(=O)C(Cc1c[nH]c2ccccc12)NC(=O)C1CCC(=O)N1)C(=O)N1CCCC1C(=O)N1CCCC1C(=O)O (stereo not given) | < 4.70 | > 20
O=C1O[C@@H]([C@@H](O)CO)C(O)=C1O | < 4.70 | > 20
COc1ccc(C2CNC(=O)NC2)cc1O[C@@H]1C[C@H]2CC[C@@H]1C2 | < 4.70 | > 20
C=C1CC[C@H](O)C/C1=C/C=C1\CCCC2(C)C1CCC2C(C)/C=C/C(C)C(C)C (stereo not given in full) | < 4.70 | > 20
Nc1nc(OC(c2ccc(-c3cccc(F)c3)cc2)C(F)(F)F)cc(-c2ccc(C[C@H](N)C(=O)O)cc2)n1 (stereo not given in full) | < 4.70 | > 20
C#C[C@]1(CO)O[C@@H](n2cnc3c(N)nc(F)nc32)C[C@@H]1O | < 4.70 | > 20
Nc1ccccc1S(N)(=O)=O | < 4.70 | > 20
COc1ccc(CCN(C)CCCC(C#N)(c2ccc(OC)c(OC)c2)C(C)C)cc1OC (stereo not given) | < 4.70 | > 20
O=C[C@@H]1CCCN1C(=O)CCC(=O)NCc1ccc(Cl)cc1 | < 4.70 | > 20
